The record followed here is ChEMBL document CHEMBL5465560, “Selectivity Literature for EUbOPEN Chemogenomic Library” (2024).

Experiment [1] concerns the target T1, cGMP-dependent protein kinase 1 (Homo sapiens) (UniProt Q13976).
T1 sequence (whole entry): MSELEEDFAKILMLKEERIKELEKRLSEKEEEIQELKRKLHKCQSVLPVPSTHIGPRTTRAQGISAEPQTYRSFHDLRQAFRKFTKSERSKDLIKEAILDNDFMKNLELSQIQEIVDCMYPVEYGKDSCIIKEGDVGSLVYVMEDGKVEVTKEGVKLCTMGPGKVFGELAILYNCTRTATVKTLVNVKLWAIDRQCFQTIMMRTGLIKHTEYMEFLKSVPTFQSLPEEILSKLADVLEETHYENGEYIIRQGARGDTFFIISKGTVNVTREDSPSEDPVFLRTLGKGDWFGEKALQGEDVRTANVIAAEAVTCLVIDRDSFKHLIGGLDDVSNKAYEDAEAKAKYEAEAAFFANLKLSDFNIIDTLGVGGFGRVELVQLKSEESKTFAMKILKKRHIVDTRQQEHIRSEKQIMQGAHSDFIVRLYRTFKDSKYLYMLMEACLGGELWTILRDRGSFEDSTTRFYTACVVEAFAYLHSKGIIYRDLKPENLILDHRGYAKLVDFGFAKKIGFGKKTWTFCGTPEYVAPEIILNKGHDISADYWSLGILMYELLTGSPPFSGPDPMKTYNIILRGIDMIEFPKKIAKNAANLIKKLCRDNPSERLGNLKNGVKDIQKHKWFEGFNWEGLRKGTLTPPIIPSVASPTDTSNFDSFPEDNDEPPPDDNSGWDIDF
Kind of experiment: Selectivity interaction (Ambit KINOMEscan and KiNATiv profiling in Jurkat cells) EUB0000090b PRKG1. It is filed as cell-based. The settings on record: at 1 µM.

Experiment [2] has as its target SRSF protein kinase 3 (Homo sapiens) (UniProt Q9UPE1). The settings on record: at 10 µM.
Experiment [3] addresses Bone morphogenetic protein receptor type-1A (Homo sapiens, UniProt P36894). Briefly: Selectivity interaction (KinomeScan (DiscoverX)) EUB0000655a BMPR1A. The settings on record: at 10 µM.
Experiment [4] deals with T2, Discoidin domain-containing receptor 2 (Homo sapiens) (UniProt Q16832).
T2 sequence (whole entry): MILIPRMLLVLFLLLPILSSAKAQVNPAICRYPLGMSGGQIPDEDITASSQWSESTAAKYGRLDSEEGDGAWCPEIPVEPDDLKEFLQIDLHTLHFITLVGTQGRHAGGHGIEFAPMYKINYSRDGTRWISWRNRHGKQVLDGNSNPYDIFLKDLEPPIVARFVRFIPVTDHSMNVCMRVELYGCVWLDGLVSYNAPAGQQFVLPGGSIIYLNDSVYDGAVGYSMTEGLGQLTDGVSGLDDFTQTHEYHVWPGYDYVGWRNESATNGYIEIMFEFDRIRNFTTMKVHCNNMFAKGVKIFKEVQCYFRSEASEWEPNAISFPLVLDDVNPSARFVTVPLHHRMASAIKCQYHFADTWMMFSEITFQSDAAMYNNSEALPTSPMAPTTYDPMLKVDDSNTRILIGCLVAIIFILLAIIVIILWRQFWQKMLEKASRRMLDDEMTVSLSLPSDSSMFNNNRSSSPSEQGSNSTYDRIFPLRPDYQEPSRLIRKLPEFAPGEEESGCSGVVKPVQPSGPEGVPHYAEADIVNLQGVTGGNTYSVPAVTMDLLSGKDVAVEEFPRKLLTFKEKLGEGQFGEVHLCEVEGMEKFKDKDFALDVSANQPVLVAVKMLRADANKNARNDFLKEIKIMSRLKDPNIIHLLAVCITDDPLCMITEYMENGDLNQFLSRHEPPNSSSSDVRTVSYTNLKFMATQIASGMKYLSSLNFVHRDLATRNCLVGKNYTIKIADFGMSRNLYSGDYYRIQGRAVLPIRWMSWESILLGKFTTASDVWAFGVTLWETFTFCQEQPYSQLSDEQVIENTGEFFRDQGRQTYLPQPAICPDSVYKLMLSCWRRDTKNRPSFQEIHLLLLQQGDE
Kind of experiment: Selectivity interaction (KinomeScan (DiscoverX)) EUB0000655a DDR2. The following applies: at 10 µM.

Experiment [5] deals with Microtubule-associated serine/threonine-protein kinase 3 (Homo sapiens) (UniProt O60307). Kind of experiment: Selectivity interaction (ActivX KiNativ screen (kinase selectivity in THP-1 cell lysates)) EUB0000639a MAST3. It is filed as subcellular. The settings on record: lysate.
The target in experiment [6] is Serine/threonine-protein kinase Nek7 (Homo sapiens) (UniProt Q8TDX7). Kind of experiment: Selectivity interaction (ActivX KiNativ screen (kinase selectivity in THP-1 cell lysates)) EUB0000639a NEK7. It is filed as subcellular. The following applies: lysate, at 1 µM.
In experiment [7] the target is T3, Ephrin type-A receptor 3 (Homo sapiens) (UniProt P29320).
T3 sequence (whole entry): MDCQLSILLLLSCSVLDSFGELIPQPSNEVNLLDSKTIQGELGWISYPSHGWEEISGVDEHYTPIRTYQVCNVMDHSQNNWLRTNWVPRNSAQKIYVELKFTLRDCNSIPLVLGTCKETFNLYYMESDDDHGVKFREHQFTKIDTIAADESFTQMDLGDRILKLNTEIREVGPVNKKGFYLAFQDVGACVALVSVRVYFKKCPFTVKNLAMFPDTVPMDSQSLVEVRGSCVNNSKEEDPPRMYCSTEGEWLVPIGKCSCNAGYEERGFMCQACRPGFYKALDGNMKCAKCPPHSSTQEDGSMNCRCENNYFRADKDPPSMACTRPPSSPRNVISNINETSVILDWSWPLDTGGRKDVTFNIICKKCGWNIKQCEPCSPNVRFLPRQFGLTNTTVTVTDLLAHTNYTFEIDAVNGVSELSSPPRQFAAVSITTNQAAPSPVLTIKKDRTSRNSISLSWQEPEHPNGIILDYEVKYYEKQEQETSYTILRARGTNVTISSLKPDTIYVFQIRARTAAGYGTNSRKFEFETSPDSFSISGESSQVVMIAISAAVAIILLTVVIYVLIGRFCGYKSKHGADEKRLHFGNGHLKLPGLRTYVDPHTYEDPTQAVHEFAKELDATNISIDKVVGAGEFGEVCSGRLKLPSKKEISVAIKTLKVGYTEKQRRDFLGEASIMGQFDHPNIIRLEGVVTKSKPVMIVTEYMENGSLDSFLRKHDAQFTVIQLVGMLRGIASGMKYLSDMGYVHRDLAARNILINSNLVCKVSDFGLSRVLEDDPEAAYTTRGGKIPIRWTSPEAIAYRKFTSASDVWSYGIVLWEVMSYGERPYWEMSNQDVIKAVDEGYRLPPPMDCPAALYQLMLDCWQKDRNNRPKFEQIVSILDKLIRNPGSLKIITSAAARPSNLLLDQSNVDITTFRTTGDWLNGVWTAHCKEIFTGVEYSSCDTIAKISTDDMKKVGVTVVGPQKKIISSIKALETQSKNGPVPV
Briefly: Selectivity interaction (KinomeScan (DiscoverX)) EUB0001049a EPHA3. The following applies: at 1 µM.

For experiment [8], the target named is MAP/microtubule affinity-regulating kinase 3 (Homo sapiens) (UniProt P27448). Briefly: Selectivity interaction (KinomeScan (DiscoverX)) EUB0000695a MARK3. The settings on record: at 100 nM.
Chain of MAP/microtubule affinity-regulating kinase 3 (Homo sapiens) (P27448 whole entry, looked up): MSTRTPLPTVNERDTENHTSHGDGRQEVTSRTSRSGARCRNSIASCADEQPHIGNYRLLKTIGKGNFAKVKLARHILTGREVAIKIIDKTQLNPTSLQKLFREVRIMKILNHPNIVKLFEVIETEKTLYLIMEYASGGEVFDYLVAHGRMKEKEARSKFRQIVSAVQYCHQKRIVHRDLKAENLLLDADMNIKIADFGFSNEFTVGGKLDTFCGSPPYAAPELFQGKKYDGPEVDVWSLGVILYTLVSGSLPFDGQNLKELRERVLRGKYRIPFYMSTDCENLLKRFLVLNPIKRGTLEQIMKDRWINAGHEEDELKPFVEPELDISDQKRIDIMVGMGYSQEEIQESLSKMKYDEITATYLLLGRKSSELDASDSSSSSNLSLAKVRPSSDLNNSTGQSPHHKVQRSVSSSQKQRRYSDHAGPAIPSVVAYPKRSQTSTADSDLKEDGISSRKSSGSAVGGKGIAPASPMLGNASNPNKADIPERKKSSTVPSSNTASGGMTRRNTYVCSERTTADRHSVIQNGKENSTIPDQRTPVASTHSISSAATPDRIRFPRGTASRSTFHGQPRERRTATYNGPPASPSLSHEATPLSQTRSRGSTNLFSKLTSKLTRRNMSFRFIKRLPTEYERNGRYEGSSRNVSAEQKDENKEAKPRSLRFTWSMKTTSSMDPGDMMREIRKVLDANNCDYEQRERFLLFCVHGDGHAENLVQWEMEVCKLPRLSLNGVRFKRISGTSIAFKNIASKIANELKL

Chain of Microtubule-associated serine/threonine-protein kinase 3 (Homo sapiens) (O60307 whole entry): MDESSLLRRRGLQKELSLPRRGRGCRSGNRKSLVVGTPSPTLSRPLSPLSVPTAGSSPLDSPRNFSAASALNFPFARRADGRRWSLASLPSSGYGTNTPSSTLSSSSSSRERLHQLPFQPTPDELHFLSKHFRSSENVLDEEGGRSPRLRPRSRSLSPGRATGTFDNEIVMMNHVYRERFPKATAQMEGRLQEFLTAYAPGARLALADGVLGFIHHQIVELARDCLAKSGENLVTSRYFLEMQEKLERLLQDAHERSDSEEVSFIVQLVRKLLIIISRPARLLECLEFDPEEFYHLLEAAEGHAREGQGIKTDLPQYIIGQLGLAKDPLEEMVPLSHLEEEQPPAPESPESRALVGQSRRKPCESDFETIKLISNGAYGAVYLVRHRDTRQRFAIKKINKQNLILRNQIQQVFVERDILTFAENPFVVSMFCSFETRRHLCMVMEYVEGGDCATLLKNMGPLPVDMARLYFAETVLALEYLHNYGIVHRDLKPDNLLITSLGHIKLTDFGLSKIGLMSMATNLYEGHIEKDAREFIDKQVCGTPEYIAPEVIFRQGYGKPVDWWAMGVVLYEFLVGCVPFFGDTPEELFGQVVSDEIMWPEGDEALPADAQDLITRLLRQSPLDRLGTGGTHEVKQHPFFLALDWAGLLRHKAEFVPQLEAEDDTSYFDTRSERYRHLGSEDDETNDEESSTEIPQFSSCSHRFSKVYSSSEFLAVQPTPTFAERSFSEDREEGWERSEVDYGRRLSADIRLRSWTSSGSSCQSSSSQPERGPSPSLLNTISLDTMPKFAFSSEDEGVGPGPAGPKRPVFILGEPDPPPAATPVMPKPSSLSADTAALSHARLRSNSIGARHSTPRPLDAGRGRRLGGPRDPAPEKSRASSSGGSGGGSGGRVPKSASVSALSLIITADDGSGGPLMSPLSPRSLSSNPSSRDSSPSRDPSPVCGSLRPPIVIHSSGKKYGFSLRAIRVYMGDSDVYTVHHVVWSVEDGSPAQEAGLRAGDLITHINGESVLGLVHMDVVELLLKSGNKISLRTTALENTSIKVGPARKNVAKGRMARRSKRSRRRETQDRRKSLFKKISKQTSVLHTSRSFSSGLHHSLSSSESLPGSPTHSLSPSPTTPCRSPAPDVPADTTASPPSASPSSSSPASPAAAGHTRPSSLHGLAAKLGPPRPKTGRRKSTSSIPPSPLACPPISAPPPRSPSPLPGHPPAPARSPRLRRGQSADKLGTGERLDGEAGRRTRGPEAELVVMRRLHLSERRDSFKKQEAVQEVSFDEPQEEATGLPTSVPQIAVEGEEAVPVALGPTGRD
Chain of Serine/threonine-protein kinase Nek7 (Homo sapiens) (Q8TDX7 whole entry, looked up): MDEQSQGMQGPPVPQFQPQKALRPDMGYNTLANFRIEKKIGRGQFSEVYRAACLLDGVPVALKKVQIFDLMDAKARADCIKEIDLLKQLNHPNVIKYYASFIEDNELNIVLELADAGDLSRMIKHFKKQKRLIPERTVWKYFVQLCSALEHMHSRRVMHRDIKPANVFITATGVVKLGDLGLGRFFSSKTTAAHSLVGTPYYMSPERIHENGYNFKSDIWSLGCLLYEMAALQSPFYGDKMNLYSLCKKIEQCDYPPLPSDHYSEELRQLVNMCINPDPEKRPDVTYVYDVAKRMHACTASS
Chain of Bone morphogenetic protein receptor type-1A (P36894 whole entry, the tested form may be a part): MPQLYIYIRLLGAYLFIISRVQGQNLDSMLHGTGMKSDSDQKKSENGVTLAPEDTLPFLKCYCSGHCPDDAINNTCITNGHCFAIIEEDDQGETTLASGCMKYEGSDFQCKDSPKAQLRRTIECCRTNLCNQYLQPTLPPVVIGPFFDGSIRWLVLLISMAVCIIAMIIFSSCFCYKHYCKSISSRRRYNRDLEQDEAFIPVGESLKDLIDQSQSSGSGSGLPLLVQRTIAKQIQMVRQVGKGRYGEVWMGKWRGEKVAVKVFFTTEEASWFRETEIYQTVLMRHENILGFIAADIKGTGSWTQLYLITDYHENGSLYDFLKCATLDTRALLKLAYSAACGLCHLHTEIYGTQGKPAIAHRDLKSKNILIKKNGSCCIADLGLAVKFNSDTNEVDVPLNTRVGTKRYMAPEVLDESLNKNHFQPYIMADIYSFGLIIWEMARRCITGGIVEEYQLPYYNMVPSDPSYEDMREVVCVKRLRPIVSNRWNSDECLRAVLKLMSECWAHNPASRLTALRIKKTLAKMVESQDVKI
Chain of SRSF protein kinase 3 (Homo sapiens) (Q9UPE1 whole entry): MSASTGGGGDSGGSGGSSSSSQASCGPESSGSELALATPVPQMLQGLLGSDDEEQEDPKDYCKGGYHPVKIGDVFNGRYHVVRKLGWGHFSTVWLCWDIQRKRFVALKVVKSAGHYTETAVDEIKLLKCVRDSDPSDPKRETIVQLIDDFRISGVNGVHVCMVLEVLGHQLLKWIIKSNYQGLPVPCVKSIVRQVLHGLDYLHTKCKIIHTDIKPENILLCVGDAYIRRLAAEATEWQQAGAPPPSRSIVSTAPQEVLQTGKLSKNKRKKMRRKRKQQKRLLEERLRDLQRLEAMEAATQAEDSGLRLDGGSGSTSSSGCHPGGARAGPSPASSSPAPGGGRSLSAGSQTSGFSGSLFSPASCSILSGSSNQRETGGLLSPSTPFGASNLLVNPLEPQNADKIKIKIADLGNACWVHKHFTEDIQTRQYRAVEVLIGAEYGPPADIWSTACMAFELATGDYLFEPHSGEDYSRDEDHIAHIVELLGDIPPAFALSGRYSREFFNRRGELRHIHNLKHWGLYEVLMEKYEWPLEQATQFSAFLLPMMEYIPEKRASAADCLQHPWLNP

Take `CN(C)C/C=C/C(=O)Nc1ccc(C(=O)N2CCCC(Nc3ncc(Cl)c(-c4c[nH]c5ccccc45)n3)C2)cc1` (configuration not stated): in experiment [1], the % of control is 97%.

Consider `Cc1cc([C@@H](C)Nc2ccccc2C(=O)O)c2nc(N3CCOCC3)cc(=O)n2c1` [AZD-6482], for which, in experiment [2], the % of control was 100%.

Regarding `CN(C)CCOc1ccc(-c2nc(-c3ccncc3)c(-c3ccc4c(c3)CC/C4=N\O)[nH]2)cc1`, the % of control in experiment [3] amounted to 100%; in experiment [4], 67%.

For the compound `CC[C@@H]1[C@H](F)C(=O)N[C@@H]1COc1nccc2cc(C(N)=O)c(OC)cc12` [ZIMLOVISERTIB], the % of inhibition stood at 11.4% in experiment [5] (at 0.01 µM); 9.3% in experiment [5] (at 0.04 µM); 2.6% in experiment [5] (at 0.2 µM); 4.8% in experiment [5] (at 1 µM); 32.1% in experiment [5] (at 5 µM); 2% in experiment [6].

In the case of `COc1cc(Nc2nc(C)cc(-c3cnn4nc(OC)ccc34)n2)cc(C(F)(F)F)c1`, in experiment [7], the % of control is 80%.

`Cc1cc(F)c(C(=O)Nc2cccc(-c3nncn3C(C)C)n2)cc1-n1cnc(C2CC2)c1` yielded a % of control in experiment [8] of 90%.
